The structures appear in SMILES notation.

The results in this text go back to US7728128B2, “Dibenzo[c,h][1,5]naphthyridines and their use as DNA probes” (Institut National de la Sante et de la Recherche Medicate …, priority 2006, dated 2010).

The test system of the assay is CT DNA. As to the kind of experiment: viscometry (hydrodynamic studies) of CT DNA solutions. The assay is classed as binding, calf. As to conditions: CT DNA 0.5 mM, drug 0.1 mM (0.2 dye/bp ratio). The procedure:
Calf thymus (CT) DNA was dissolved in 50 mM Na-phosphate buffer, pH 7.2, to a concentration of 0.1 or 0.5 mM relative to base pairs as described in the legend for FIGS. 3A and B. DNA solution was allowed to run through a custom-made capillary viscometer and the time necessary for the meniscus to pass a certain distance was measured using a stopwatch. All experiments were performed at 23° C. Viscosity values were calculated using the equation: η=(t−t0)/t0, where t is the flow time of DNA solution (with or without dye), and t0 is the flow time of Na-phosphate buffer alone. For each control and DNA solutions with dyes flow times were measured three to five times. Viscosity of DNA solutions with dyes were calculated as (η/η0)^1/3, where η0 and η are relative viscosities of the CT DNA solution in the absence and presence of the dye, respectively. This calculation stems from the relationship which exists between the relative solution viscosity and the relative contour length (L/L0): L/L0=(η/η0)^1/3, where L stands for the apparent molecular length (Muller, W. et al., 1968, J Mol Biol, 35, 251-290). Average viscosity values and standard error of the mean (SEM) were determined using (η/η0)^1/3 values calculated for each time flow measurement.
DNA-binding dyes interact with dsDNA by intercalation or external binding, or both. External binding most often involves the minor groove of DNA (Kopka et al.; Pjura, P. E., et al., 1987, J Mol Biol, 197, 257-271). Intercalation occurs when a ligand inserts itself between the opposite strands of DNA. In order to determine the mechanism of compound I binding to dsDNA, the inventors performed hydrodynamic studies. This approach is based on the observation that intercalating molecules increase the length of DNA fragments and, consequently, enhance the viscosity of DNA solutions (Muller W. et al.; Suh, D. et al., 1995, Bioorg Med Chem, 3, 723-728). For this experiment, compound I has been compared to the known DNA intercalator ethidium bromide and to the external minor groove binder Hoechst 33258. CT DNA at 0.5 mM was mixed with drugs at 0.1 mM concentration (0.2 dye/bp ratio) and used for viscometry measurements.
The inventors then wondered whether the increase in viscosity is equally matched by the increase in fluorescence intensity. To answer this question, CT DNA at 0.1 mM (bp) was mixed with increasing amounts of compound I and viscosity measurements were performed as above. The viscosity of the DNA/compound I solutions increased up to a dye/bp ratio 1 (FIG. 3B). To correlate the increase in viscosity with fluorescence, the inventors measured fluorescence intensities at 484 nm of the compound I/DNA solutions used for the viscosity measurements.

Turning to `CN1CCN(c2ccc3[nH]c(-c4ccc5[nH]c(-c6ccc(O)cc6)nc5c4)nc3c2)CC1` [Hoechst 33258, reference compound], the “effect on viscosity of DNA solution” value is “decrease slightly”.
